Data reported in patent US10660877B2 (BRISTOL-MYERS SQUIBB COMPANY, priority 2016, dated 2020).
Like-named read-outs stand apart in the source and are kept apart here.

Experiments:
[1] = target: human TLR8 (Homo sapiens (Human), UniProt Q9NR97); assay: TLR8 inhibition reporter assay (HEK-Blue cells, SEAP reporter, R848 stimulation);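 also: compounds tested from 0.05 nM to 50 µM, 22 h at 37 °C, SEAP measured with HEK-Blue Detection, inhibition relative to agonist plus DMSO versus a known inhibitor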
[2] = target: human TLR7 (Homo sapiens (Human), UniProt Q9NYK1); assay: TLR7 inhibition reporter assay (HEK-Blue cells, SEAP reporter, gardiquimod stimulation); type: cell-based
[3] = target: human TLR9 (Homo sapiens (Human), UniProt Q9NR96); assay: TLR9 inhibition reporter assay (HEK-Blue cells, SEAP reporter, ODN2006 stimulation);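 also: compounds tested over 0.05 nM to 50 µM, 22 h incubation, inhibition taken as SEAP signal drop from agonist plus DMSO wells toward a known inhibitor control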
[4] = read-out: TLR8 IC50, HEK-Blue cells overexpressing human TLR8, R848 15.9 μM
[5] = HEK-Blue cells overexpressing human TLR7, gardiquimod 7.5 μM
[6] = read-out: TLR9 IC50, HEK-Blue cells overexpressing human TLR9, ODN2006 5 nM
[7] = read-out: TLR8 IC50, HEK-Blue cells, R848 15.9 μM
[8] = HEK-Blue cells, gardiquimod 7.5 μM
[9] = read-out: TLR9 IC50, HEK-Blue cells, ODN2006 5 nM

human TLR9, sequence (Q9NR96 26-1032): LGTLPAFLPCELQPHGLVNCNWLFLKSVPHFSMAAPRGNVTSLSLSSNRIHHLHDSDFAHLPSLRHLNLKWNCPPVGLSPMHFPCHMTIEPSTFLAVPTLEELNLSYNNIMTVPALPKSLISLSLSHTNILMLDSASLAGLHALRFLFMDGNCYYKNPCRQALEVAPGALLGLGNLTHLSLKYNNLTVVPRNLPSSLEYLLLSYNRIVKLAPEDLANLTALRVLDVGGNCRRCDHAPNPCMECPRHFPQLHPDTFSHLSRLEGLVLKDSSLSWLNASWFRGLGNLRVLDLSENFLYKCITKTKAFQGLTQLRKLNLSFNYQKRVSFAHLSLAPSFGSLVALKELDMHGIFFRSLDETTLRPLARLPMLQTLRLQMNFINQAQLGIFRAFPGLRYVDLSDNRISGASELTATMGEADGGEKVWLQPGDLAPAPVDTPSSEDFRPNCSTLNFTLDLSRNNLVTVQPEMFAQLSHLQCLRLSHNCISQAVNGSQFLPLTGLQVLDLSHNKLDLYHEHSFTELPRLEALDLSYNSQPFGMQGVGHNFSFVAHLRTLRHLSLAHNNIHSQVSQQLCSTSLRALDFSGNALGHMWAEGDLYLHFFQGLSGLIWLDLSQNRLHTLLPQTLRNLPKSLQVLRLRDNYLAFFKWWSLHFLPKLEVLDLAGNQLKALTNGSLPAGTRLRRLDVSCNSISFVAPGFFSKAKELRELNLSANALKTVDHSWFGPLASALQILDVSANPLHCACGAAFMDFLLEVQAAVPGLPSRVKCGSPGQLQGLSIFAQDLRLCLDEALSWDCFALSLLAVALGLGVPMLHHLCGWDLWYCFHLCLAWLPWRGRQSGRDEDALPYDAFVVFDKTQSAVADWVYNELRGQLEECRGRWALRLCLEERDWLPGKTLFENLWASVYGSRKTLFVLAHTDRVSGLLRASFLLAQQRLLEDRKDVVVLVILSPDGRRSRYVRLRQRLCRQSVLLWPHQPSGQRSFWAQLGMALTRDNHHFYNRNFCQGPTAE
human TLR7, sequence (Q9NYK1 27-1049): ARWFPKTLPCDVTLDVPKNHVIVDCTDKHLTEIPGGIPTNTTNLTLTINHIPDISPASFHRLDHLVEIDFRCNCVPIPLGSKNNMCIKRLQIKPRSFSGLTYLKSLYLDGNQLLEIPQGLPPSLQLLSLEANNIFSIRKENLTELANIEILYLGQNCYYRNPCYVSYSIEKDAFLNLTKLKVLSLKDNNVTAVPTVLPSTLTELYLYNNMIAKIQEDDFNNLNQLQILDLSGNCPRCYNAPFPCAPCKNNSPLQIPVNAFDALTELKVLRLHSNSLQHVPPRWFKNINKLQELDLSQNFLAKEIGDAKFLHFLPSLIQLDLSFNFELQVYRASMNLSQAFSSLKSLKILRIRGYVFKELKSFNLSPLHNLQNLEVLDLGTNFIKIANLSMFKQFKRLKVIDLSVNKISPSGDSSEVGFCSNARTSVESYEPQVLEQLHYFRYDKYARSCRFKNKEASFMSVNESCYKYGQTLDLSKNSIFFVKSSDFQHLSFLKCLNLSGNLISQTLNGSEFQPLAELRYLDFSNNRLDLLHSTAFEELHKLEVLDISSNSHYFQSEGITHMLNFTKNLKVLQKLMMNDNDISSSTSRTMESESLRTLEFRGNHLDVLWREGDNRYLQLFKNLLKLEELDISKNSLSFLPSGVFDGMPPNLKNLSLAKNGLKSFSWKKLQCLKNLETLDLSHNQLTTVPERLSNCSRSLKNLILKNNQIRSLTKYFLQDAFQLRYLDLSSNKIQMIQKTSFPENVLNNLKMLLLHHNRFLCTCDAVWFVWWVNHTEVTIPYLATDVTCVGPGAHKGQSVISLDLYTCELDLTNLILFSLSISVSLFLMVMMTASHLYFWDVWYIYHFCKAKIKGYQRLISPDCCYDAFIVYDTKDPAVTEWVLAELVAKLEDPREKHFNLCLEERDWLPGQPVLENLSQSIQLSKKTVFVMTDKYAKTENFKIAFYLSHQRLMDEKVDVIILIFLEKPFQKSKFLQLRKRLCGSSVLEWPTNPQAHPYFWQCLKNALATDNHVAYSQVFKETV
human TLR8, sequence (Q9NR97 27-1041): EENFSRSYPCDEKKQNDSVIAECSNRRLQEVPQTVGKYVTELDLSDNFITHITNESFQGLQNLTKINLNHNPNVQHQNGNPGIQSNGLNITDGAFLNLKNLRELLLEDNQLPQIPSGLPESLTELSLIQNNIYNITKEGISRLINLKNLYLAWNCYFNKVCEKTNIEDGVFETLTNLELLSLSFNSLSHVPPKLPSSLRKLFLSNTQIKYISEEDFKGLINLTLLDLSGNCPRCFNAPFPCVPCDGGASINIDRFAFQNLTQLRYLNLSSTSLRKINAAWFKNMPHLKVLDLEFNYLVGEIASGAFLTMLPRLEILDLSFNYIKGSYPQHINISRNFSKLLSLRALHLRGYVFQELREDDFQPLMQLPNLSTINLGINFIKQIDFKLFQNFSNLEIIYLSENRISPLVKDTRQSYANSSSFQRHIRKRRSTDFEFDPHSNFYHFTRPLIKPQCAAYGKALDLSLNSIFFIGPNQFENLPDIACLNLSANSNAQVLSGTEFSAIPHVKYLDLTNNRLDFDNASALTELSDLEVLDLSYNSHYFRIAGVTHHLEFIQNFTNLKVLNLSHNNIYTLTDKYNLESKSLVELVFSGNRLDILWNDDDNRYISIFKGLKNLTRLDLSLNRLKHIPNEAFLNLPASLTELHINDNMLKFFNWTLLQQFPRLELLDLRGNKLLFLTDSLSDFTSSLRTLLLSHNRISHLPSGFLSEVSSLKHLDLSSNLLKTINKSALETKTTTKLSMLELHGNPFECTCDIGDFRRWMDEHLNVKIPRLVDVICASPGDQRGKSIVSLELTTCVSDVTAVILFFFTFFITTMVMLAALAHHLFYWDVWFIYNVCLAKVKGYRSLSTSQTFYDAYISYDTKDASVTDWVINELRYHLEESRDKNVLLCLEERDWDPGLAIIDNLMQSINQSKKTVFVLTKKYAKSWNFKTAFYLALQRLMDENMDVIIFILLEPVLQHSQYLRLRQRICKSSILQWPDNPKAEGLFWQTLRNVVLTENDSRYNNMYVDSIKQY

Row | IC50 [1, 4] | IC50 [2, 5] | IC50 [3, 6] | IC50 [1, 7] | IC50 [2, 8] | IC50 [3, 9] | Structure (SMILES)
1 | 14 nM | 6.2 nM | 261 nM |  |  |  | Cc1cc(-c2[nH]c3ccc(C4CCN(CC(=O)N5CCC6(CC5)COC6)CC4)cc3c2C(C)C)cc(C)n1 [Example 286, 2-(4-(2-(2,6-dimethylpyridin-4-yl)-3-isopropyl-1H-indol-5-yl)piperidin-1-yl)-1-(2-oxa-7-azaspiro[3.5]nonan-7-yl)ethan-1-one]
2 | 42.7 nM | 11.1 nM | 1100 nM |  |  |  | Cc1cc(-c2[nH]c3ccc(C4CCN(C(=O)CN(C)C)CC4)cc3c2C(C)C)cc(C2CC2)n1 [Example 506, 1-(4-(2-(2-cyclopropyl-6-methylpyridin-4-yl)-3-isopropyl-1H-indol-5-yl)piperidin-1-yl)-2-(dimethylamino)ethan-1-one]
3 | 1480 nM | 1160 nM | > 50000 nM |  |  |  | Cc1cc(-c2[nH]c3ccc(C4CCN(S(=O)(=O)c5ccc(Cl)cc5)CC4)cc3c2C(C)C)ccn1 [Example 542, 5-(1-((4-chlorophenyl)sulfonyl)piperidin-4-yl)-3-isopropyl-2-(2-methylpyridin-4-yl)-1H-indole]
4 | 4.2 nM | 1.3 nM | 1750 nM |  |  |  | CNC(=O)CN1CCC(c2ccc3[nH]c(-c4cc(C)nc(C)c4F)c(C(C)C)c3c2)CC1 [Example 655, 2-(4-(2-(3-fluoro-2,6-dimethylpyridin-4-yl)-3-isopropyl-1H-indol-5-yl)piperidin-1-yl)-N-methylacetamide]
5 | 35.8 nM | 91.8 nM | 795 nM |  |  |  | CCc1c(-c2ccnc(C)c2)[nH]c2ccc(C3CCN(C(=O)CCC4CCNCC4)CC3)cc12 [Example 632, 1-(4-(3-ethyl-2-(2-methylpyridin-4-yl)-1H-indol-5-yl)piperidin-1-yl)-3-(piperidin-4-yl)propan-1-one]
6 | 20.3 nM | 12.1 nM | 123 nM |  |  |  | Cc1cc(-c2[nH]c3ccc(C4CCN(C(C)C)CC4)cc3c2CC(F)F)cc(C)n1 [Example 536, 3-(2,2-difluoroethyl)-2-(2,6-dimethylpyridin-4-yl)-5-(1-isopropylpiperidin-4-yl)-1H-indole]
7 | 11.2 nM | 4.7 nM | 248 nM |  |  |  | CCc1c(-c2cc(C)nc(C)c2)[nH]c2ccc(C3CCNCC3)cc12 [Example 2, 2-(2,6-dimethylpyridin-4-yl)-3-ethyl-5-(piperidin-4-yl)-1H-indole]
8 | 1.3 nM | 0.5 nM | 845 nM |  |  |  | Cc1cc(-c2[nH]c3ccc(C4CCN(C(=O)CN(C)C)CC4)cc3c2C(C)C)c(F)c(C)n1 [Example 588, 2-(dimethylamino)-1-(4-(2-(3-fluoro-2,6-dimethylpyridin-4-yl)-3-isopropyl-1H-indol-5-yl)piperidin-1-yl)ethan-1-one]
9 | 8 nM | 1.6 nM | 579 nM |  |  |  | Cc1cc(-c2[nH]c3ccc(C4CCN(C(=O)CN(C)C)CC4)cc3c2C(C)C)cc(C)n1 [Example 98, 2-(dimethylamino)-1-(4-(2-(2,6-dimethylpyridin-4-yl)-3-isopropyl-1H-indol-5-yl)piperidin-1-yl)ethan-1-one]
10 | 85.4 nM | 6 nM | 5720 nM |  |  |  | Cc1cc(-c2[nH]c3ccc(C4CCN(C(=O)Cn5ccnn5)CC4)cc3c2C(C)C)cc(C)n1 [Example 158, 1-(4-(2-(2,6-dimethylpyridin-4-yl)-3-isopropyl-1H-indol-5-yl)piperidin-1-yl)-2-(1H-1,2,3-triazol-1-yl)ethan-1-one]
11 | 10.2 nM | 2.3 nM | 343 nM |  |  |  | Cc1cc(-c2[nH]c3ccc(C4CCN(CC(=O)N(C)C5CC5)CC4)cc3c2C(C)C)cc(C)n1 [Example 248, N-cyclopropyl-2-(4-(2-(2,6-dimethylpyridin-4-yl)-3-isopropyl-1H-indol-5-yl)piperidin-1-yl)-N-methylacetamide]
12 |  |  |  | 2.9 nM | 30.6 nM | 16 nM | CCc1c(-c2ccnc(C)c2)[nH]c2ccc(C3CCN(CC(O)CN(C)C(C)C)CC3)cc12 (stereo not drawn) [Example 877, 1-(4-(3-ethyl-2-(2-methylpyridin-4-yl)-1H-indol-5-yl)piperidin-1-yl)-3-(isopropyl(methyl)amino)propan-2-ol]
13 | 96.1 nM | 6.9 nM | 5440 nM |  |  |  | Cc1cc(-c2[nH]c3ccc(C4CCN(C(=O)c5c(C)noc5C)CC4)cc3c2C(C)C)cc(C)n1 [Example 119, (3,5-dimethylisoxazol-4-yl)(4-(2-(2,6-dimethylpyridin-4-yl)-3-isopropyl-1H-indol-5-yl)piperidin-1-yl) methanone]

Continued, compound first:

Row | Structure (SMILES) | IC50 [1, 4] | IC50 [2, 5] | IC50 [3, 6] | IC50 [1, 7] | IC50 [2, 8] | IC50 [3, 9]
14 | Cc1cc(-c2[nH]c3ccc(C4CCN(CC(=O)NC(C)C)CC4)cc3c2C(C)C)cc(C)n1 [Example 218, 2-(4-(2-(2,6-dimethylpyridin-4-yl)-3-isopropyl-1H-indol-5-yl)piperidin-1-yl)-N-isopropylacetamide] | 10.5 nM | 4.9 nM | 949 nM |  |  | 
15 | Cc1cc(-c2[nH]c3ccc(C4CCN(C(=O)CN(C)Cc5ncn(C)n5)CC4)cc3c2C(C)C)cc(C)n1 [Example 419, 1-(4-(2-(2,6-dimethylpyridin-4-yl)-3-isopropyl-1H-indol-5-yl)piperidin-1-yl)-2-(methyl((1-methyl-1H-1,2,4-triazol-3-yl)methyl)amino)ethan-1-one] | 117 nM | 10.7 nM | 45500 nM |  |  | 
16 | Cc1cc(-c2[nH]c3ccc(C4CCN(CC(=O)N(C(C)C)C(C)C)CC4)cc3c2C(C)C)cc(C)n1 [Example 253, 2-(4-(2-(2,6-dimethylpyridin-4-yl)-3-isopropyl-1H-indol-5-yl)piperidin-1-yl)-N,N-diisopropylacetamide] | 37.1 nM | 19.7 nM | 1340 nM |  |  | 
17 | CC(C)c1c(-c2cc(C3CC3)ncc2F)[nH]c2ccc(C3CCNCC3)cc12 [Example 481, 2-(2-cyclopropyl-5-fluoropyridin-4-yl)-3-isopropyl-5-(piperidin-4-yl)-1H-indole] | 95.4 nM | 16 nM | 677 nM |  |  | 
18 | CNCC(=O)N1CCC(c2ccc3[nH]c(-c4ccnc(C)c4)c(C(C)C)c3c2)CC1 [Example 510, 1-(4-(3-isopropyl-2-(2-methylpyridin-4-yl)-1H-indol-5-yl)piperidin-1-yl)-2-(methylamino)ethan-1-one] | 8.6 nM | 8.8 nM | 695 nM |  |  | 
19 | C=C(c1c(-c2cc(C)nc(C)c2)[nH]c2ccc(C3CCNCC3)cc12)C(F)(F)F [Example 91, 2-(2,6-dimethylpyridin-4-yl)-5-(piperidin-4-yl)-3-(3,3,3-trifluoroprop-1-en-2-yl)-1H-indole] | 15.3 nM | 3.2 nM | 92 nM |  |  | 
20 | Cc1cc(-c2[nH]c3ccc(C4CCN(Cc5nnc(C6CC6)o5)CC4)cc3c2C(C)C)c(C)cn1 [Example 697, 2-cyclopropyl-5-((4-(2-(2,5-dimethylpyridin-4-yl)-3-isopropyl-1H-indol-5-yl)piperidin-1-yl)methyl)-1,3,4-oxadiazole] | 20.7 nM | 223 nM | > 50000 nM |  |  | 
21 | CNCCN1CCC(c2ccc3[nH]c(-c4ccnc(N5CCN(C)CC5)c4)c(C)c3c2)CC1 [Example 746, N-methyl-2-(4-(3-methyl-2-(2-(4-methylpiperazin-1-yl)pyridin-4-yl)-1H-indol-5-yl)piperidin-1-yl)ethan-1-amine] | > 50000 nM | 4030 nM | 69 nM |  |  | 
22 | Cc1cc(-c2[nH]c3ccc(C4CCN(CCC#N)CC4)cc3c2C(C)C)cc(C)n1 [Example 315, 3-(4-(2-(2,6-dimethylpyridin-4-yl)-3-isopropyl-1H-indol-5-yl)piperidin-1-yl)propanenitrile] | 9 nM | 6.6 nM | 1060 nM |  |  | 
23 | Cc1cc(-c2[nH]c3ccc(C4CCN(CC(O)CO)CC4)cc3c2C(C)C)cc(C)n1 (stereo not drawn) [Example 854, 3-(4-(2-(2,6-dimethylpyridin-4-yl)-3-isopropyl-1H-indol-5-yl)piperidin-1-yl) propane-1,2-diol] |  |  |  | 1.8 nM | 1 nM | 159 nM
24 | COc1cc(-c2[nH]c3ccc(C4CCN(C5CCNCC5)CC4)cc3c2C(C)C)ccn1 [Example 800, 5-([1,4′-bipiperidin]-4-yl)-3-isopropyl-2-(2-methoxypyridin-4-yl)-1H-indole] | 185 nM | 167 nM | 729 nM |  |  | 
25 | Cc1cc(-c2[nH]c3ccc(C4CCN(Cc5ncco5)CC4)cc3c2C(C)C)cc(C)n1 [Example 449, 2-((4-(2-(2,6-dimethylpyridin-4-yl)-3-isopropyl-1H-indol-5-yl)piperidin-1-yl)methyl)oxazole] | 14.3 nM | 13.5 nM | 2930 nM |  |  | 
26 | Cc1cc(-c2[nH]c3ccc(C4CCN(C(=O)CN5CCOCC5)CC4)cc3c2C(C)C)cc(C)n1 [Example 350, 1-(4-(2-(2,6-dimethylpyridin-4-yl)-3-isopropyl-1H-indol-5-yl)piperidin-1-yl)-2-morpholinoethan-1-one] | 29 nM | 5.3 nM | 3910 nM |  |  | 
27 | Cc1cc(-c2[nH]c3ccc(C4CCN(C(=O)CN(CCO)Cc5ccccc5)CC4)cc3c2C(C)C)cc(C)n1 [Example 396, 2-(benzyl(2-hydroxyethyl)amino)-1-(4-(2-(2,6-dimethylpyridin-4-yl)-3-isopropyl-1H-indol-5-yl)piperidin-1-yl)ethan-1-one] | 55.2 nM | 4.4 nM | 1600 nM |  |  | 
28 | CCc1c(-c2ccnc(O)c2)[nH]c2ccc(C3CCN(C4CCN(CC(C)C)CC4)CC3)cc12 [Example 765, 4-(3-ethyl-5-(1′-isobutyl-[1,4′-bipiperidin]-4-yl)-1H-indol-2-yl)pyridin-2-ol] | 341 nM | 11000 nM | 181 nM |  |  | 
